Data taken from patent US9241492B2, “Bioactive acid agrichemical compositions and use thereof” (Sciessent LLC, priority 2007, dated 2016).

Tested on: E. amylovora 153N
Assay: Fire blight on Snow Drift crabapple trees (Example 311)
Format: in vivo
Details: rate 5 lbs/a (2.27 kg/a)
Method: A study of the bioefficacy of the various agrichemical compositions, including bioactive acid solutions and blends thereof with an antibiotic agrichemical, were evaluated to assess their bioefficacy against fire blight on crabapples. The study was conducted on 5 year old Snow Drift crabapple trees, with each of the compositions being applied to ten trees in two-subplots of five trees, four different times: at 100% bloom—day 1, a second application was made on day 4, a third on day 11 and a final treatment on day 19. The trees were inoculated with E. amylovora 153N at a concentration of 4×10^6 cells per milliliter on day 1, following drying of the treatment, with the inoculation being repeated on day 13. Evaluation for fire blight was completed on 100 blossoms for each of the subplots on day 12, day 19 and day 27. Additionally, the incidence of shoot infection and the length of cankers were evaluated on day 63.
The test compositions were prepared by forming solutions of the bioactive agents. Two different dilutions of the MI2 bioactive were evaluated, the first employing 94.46 ml/gallon (25 ml/l) of water (5 ppm of each metal) and the second 188.9 ml/gallon (50 ml/l) of water (10 ppm of each metal). A streptomycin product (17% concentrated) was diluted at a rate of 0.049 lbs/gallon ([…]) (200 ppm). Finally, copper hydroxide was diluted at a rate of 1 lb/gallon (119.8 g/l). Each of the compositions and blends were spray applied at a rate of 50 gallons (189.3 l) pre acre. The results are presented as the mean of the counts.

## [Cu+2].[OH-].[OH-] [copper hydroxide]
Day 12, mean of counts per 100 blossoms
  Blossom Incidence Day 12: 3.1
Day 19
  Blossom Incidence Day 19: 2.2
Day 27
  Blossom Incidence Day 27: 9.0
Day 63
  Canker Size Day 63: 0.0 cm
  Shoot Incidence Day 63: 1.0
